Test results published in patent US5508180A, “Biocatalytic oxidation using soybean peroxidase” (Enzymol International, Inc., priority 1994, dated 1996).

What was measured:
Format in all cases: biochemical
[1] = target: T1, soybean peroxidase (Glycine max, UniProt O22443); assay: Oxygen-mediated hydroxylation of tyrosine by soybean peroxidase with dihydroxyfumaric acid, loss of DHF absorbance
T1 construct: secreted heme glycoprotein, reported 37 kDa
Procedure: Tyrosine, 0.2 g was added to 150 ml water and HCl was added until the tyrosine dissolved at about pH 3. Dihydroxyfumaric acid (DHF), 0.44 g was added to 100 ml water and dilute (1%) sodium hydroxide was added until the acid dissolved at about pH 3.
Hydroxylation of tyrosine was achieved by mixing 2 ml tyrosine solution, 1 ml 0.1M buffer selected from a range of pH 1-13, 0.1 ml soybean peroxidase at 10 mg/ml and last, adding 0.1 ml DHF stock solution. The reference curvette contained the same mixture of tyrosine, buffer and DHF stock solutions. No hydrogen peroxide was used in these reaction. Dissolved oxygen from air served as the source of oxidant. Peak wavelength corresponding to DHF, determined by DHF absorbance in the solution, was monitored for loss in absorbance, indicating consumption of the reducing agent and hydroxylation of the phenol. Oxidation was followed by monitoring wavelengths from 500 to 200 nm at zero time and 1 minute of reaction. The absorbance difference at the wavelength corresponding to loss of DHF was recorded.

[2] = target: T1, soybean peroxidase; assay: Oxidation of veratryl alcohol to veratryl aldehyde by soybean peroxidase and hydrogen peroxide, absorbance at 308 nm
Procedure: Preparation of Soybean Peroxidase Solution: Purified soybean peroxidase was lyophilized to give a powder at 120 purpurogallin units (as defined by Sigma) per mg. Purification was done with addition of 5 mM CaCl2, but without buffers or other non-volatile substances which would carry over with the enzyme in the powder. Lyophilization typically yielded 4.5 g from 60 ml. […] Using the extinction coefficient reported for heme in HRP ([…] at 403 nm in 0.1M Tris pH 7), and the reported molecular weight of SBP (37,000), the solid was 60% peroxidase by weight.
Preparation of peroxide stock solution: 1.5 ml of 30% hydrogen peroxide was diluted to 100 ml with water to provide a 0,147M stock solution of hydrogen peroxide.
0.1 ml soybean peroxidase (120 purpurogallin units/ml) stock solution was added to 3 ml veratryl alcohol solution (1 g veratryl alcohol in 750 ml water) and vortexed in a test tube. 20 μl peroxide stock solution was added, mixed and the solution poured into a 1 cm path, 4 ml quartz cuvette. Using a Shimadzu UV-160 double beam recording spectophotometer, the change in absorbance of the sample compared to a reference cuvette containing 3 ml veratryl alcohol solution only was monitored every minute by scanning wavelengths from 500 to 200 nm. The peak wavelength of 308 nm was identified as veratryl aldehyde and was used for further monitoring. The kinetics of the reaction were determined from the linear portion of the increase in absorbance.
To determine the effects of pH on the oxidation of veratryl alcohol, a veratryl alcohol stock solution containing 20 mM CaCl2 was divided into 9 samples and each sample treated with HCl to provide 9 samples ranging in pH from 1.25 to 3.3 ml of solution was withdrawn from each sample and the change in absorbance (dA) of veratryl alcohol in each sample was measured at 308 nm at room temperature.
To determine the effects of temperature on veratryl alcohol oxidation at a pH of 2, 5 samples of a veratryl alcohol stock solution without CaCl2 were obtained and the absorbance of veratryl alcohol was measured at varying temperatures. The samples were incubated in a circulating water bath and cuvette blocks were preheated by connection with the same bath. The test cuvette was left empty in the block to equilibrate prior to assay. Enzyme and peroxide stock solutions were stored at room temperature. Assay was initiated by pouring the alcohol solution into the cuvette, adding 0.1 ml enzyme, inverting, adding 20 ul peroxide, inverting, and immediately starting to record change in absorbance.

[3] = target: T1, soybean peroxidase; assay: Oxidation of methyl p-tolyl sulfide to sulfoxide and sulfone by soybean peroxidase; details: for Absorbance Units at 308 nm: pH 2 (conversion to sulfone)
Procedure: Methyl p-tolyl sulfide (MTS), and the enantiomeric oxidation products (R)-(+)-methyl tolyl sulfoxide (MTSO) and (S)-(-)-methyl tolyl sulfoxide, were purchased from Aldrich (Milwaukee, Wis). A stock solution of MTS was prepared by adding 1 g MTS to 750 ml water and heating at 60° C. for 15 min. A warm stock solution was used for all assays to maintain the substrate in solution. […] At pH 2 these peaks shift to 274 and 311 nm, respectively.
Assays with MTS were done with 120 ppu SBP and 1 mM H2 O2.
The effect of pH on the oxidation of MTS was studied to optimize the reaction. Buffers were used at the indicated pH at 25 mM concentration.
The effect of temperature on aromatic sulfide oxidation was investigated at pH 3.5 using MTS. Conditions were 120 ppu SBP, 25 mM Glycine, 2 mM MTS, 1 mM H2 O2.

[4] = target: T1, soybean peroxidase; assay: Chlorination of dimedone to 2-chlorodimedone catalyzed by soybean peroxidase; details: for Absorbance Units at 307 nm: pH 2, 120 ppu SBP, 1 mM H2O2, room temperature
Procedure: A stock solution (9.5 mM dimedone) was prepared by adding 1 g. 5,5-dimethyl-1,3-cyclohexane dione (dimedone) to […]. The solution was stirred to dissolve the dimedone and the pH adjusted to 2 with HCl. Chlorination of dimedone was catalyzed by soybean peroxidase (120 ppu) at pH 2 and 1 mM H2 O2. Increase in absorbance at 307 nm, corresponding to the absorbance maximum of 2-chlorodimedone was followed at room temperature and is shown in Table 9.
The effect of temperature on cholrination of dimedone was studied under these conditions. Reactions were performed as described above with increasing assay temperature.

T1 sequence (O22443 27-332): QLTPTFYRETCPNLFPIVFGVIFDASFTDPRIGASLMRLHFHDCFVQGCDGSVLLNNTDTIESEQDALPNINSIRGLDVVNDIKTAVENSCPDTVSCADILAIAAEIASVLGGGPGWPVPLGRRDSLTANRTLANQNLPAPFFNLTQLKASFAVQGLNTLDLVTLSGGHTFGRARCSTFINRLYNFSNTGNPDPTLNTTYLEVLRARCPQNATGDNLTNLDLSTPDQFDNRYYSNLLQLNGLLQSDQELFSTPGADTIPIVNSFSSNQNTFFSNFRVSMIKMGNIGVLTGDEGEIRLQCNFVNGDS

N[C@@H](Cc1ccc(O)cc1)C(=O)O [tyrosine, Tyrosine]
dA per min ([1]; pH 1, λ 310 nm, loss of DHF absorbance): 0
dA per min ([1]; pH 2, λ 315 nm, loss of DHF absorbance): 0.012
dA per min ([1]; pH 3, λ 321 nm, loss of DHF absorbance): 0.726
dA per min ([1]; pH 3.5, λ 318 nm, loss of DHF absorbance): 0.886
dA per min ([1]; pH 4, λ 319 nm, loss of DHF absorbance): 0.065
dA per min ([1]; pH 4.5, λ 320 nm, loss of DHF absorbance): 0.391
dA per min ([1]; pH 5, λ 303 nm, loss of DHF absorbance): 1.897
dA per min ([1]; pH 5.5, λ 302 nm, loss of DHF absorbance): 0.971
dA per min ([1]; pH 6, λ 302 nm, loss of DHF absorbance): 2.226
dA per min ([1]; pH 6.5, λ 302 nm, loss of DHF absorbance): 2.134
dA per min ([1]; pH 7, interference from Tris buffer): 0
dA per min ([1]; pH 7.5, interference from Tris buffer): 0
dA per min ([1]; pH 8, interference from Tris buffer): 0
dA per min ([1]; pH 8.5, λ 305 nm, loss of DHF absorbance): 1.098
dA per min ([1]; pH 9, λ 304 nm, loss of DHF absorbance): 1.705
dA per min ([1]; pH 9.5, λ 302 nm, loss of DHF absorbance): 1.66
dA per min ([1]; pH 10, λ 302 nm, loss of DHF absorbance): 0.768
dA per min ([1]; pH 10.5, λ 302 nm, loss of DHF absorbance): 1.372
dA per min ([1]; pH 11, λ 302 nm, loss of DHF absorbance): 1.988
dA per min ([1]; pH 11.5, λ 305 nm, loss of DHF absorbance): 0.075
dA per min ([1]; pH 12, λ 305 nm, loss of DHF absorbance): 0.069
dA per min ([1]; pH 13, λ 305 nm, loss of DHF absorbance): 0

COc1ccc(CO)cc1OC [veratryl alcohol, 3,4-dimethoxybenzyl alcohol]
activity (dA per minute at 308 nm) ([2]; 0.1M KCl/HCl buffer at pH 2): 0.2265
dA per minute at 308 nm ([2]; 25 °C, pH 2, without CaCl2): 1.427
dA per minute at 308 nm ([2]; 35 °C, pH 2, without CaCl2): 2.358
dA per minute at 308 nm ([2]; 45 °C, pH 2, without CaCl2): 3.17
dA per minute at 308 nm ([2]; 55 °C, pH 2, without CaCl2): 0.3467
dA per minute at 308 nm ([2]; 65 °C, pH 2, without CaCl2): 0.0018
dA per minute at 308 nm ([2]; pH 1.25, 20 mM CaCl2, room temperature): 0.0045
dA per minute at 308 nm ([2]; pH 1.35, 20 mM CaCl2, room temperature): 0.0361
dA per minute at 308 nm ([2]; pH 1.65, 20 mM CaCl2, room temperature): 0.2358
dA per minute at 308 nm ([2]; pH 1.85, 20 mM CaCl2, room temperature): 1.611
dA per minute at 308 nm ([2]; pH 2.15, 20 mM CaCl2, room temperature): 0.945
dA per minute at 308 nm ([2]; pH 2.35, 20 mM CaCl2, room temperature): 0.2243
dA per minute at 308 nm ([2]; pH 2.55, 20 mM CaCl2, room temperature): 0.1093
dA per minute at 308 nm ([2]; pH 2.85, 20 mM CaCl2, room temperature): 0.0587
dA per minute at 308 nm ([2]; pH 3, 20 mM CaCl2, room temperature): 0.0119
pH optimum ([2]; veratryl alcohol oxidation): around 2

CSc1ccc(C)cc1 [MTS, Methyl p-tolyl sulfide]
pH optimum of oxidation of MTS to MTSO [3]: 3.5
dA per min at 279 nm ([3]; 25 °C, pH 3.5, 120 ppu SBP, 25 mM Glycine, 2 mM MTS, 1 mM H2O2): 0.0607
dA per min at 279 nm ([3]; 35 °C, pH 3.5, 120 ppu SBP, 25 mM Glycine, 2 mM MTS, 1 mM H2O2): 0.0824
dA per min at 279 nm ([3]; 45 °C, pH 3.5, 120 ppu SBP, 25 mM Glycine, 2 mM MTS, 1 mM H2O2): 0.1012
dA per min at 279 nm ([3]; 55 °C, pH 3.5, 120 ppu SBP, 25 mM Glycine, 2 mM MTS, 1 mM H2O2): 0.1735
dA per min at 279 nm ([3]; 65 °C, pH 3.5, 120 ppu SBP, 25 mM Glycine, 2 mM MTS, 1 mM H2O2): 0.2563
dA per min at 279 nm ([3]; 75 °C, pH 3.5, 120 ppu SBP, 25 mM Glycine, 2 mM MTS, 1 mM H2O2): 0.1065
dA per min at 279 nm ([3]; 85 °C, pH 3.5, 120 ppu SBP, 25 mM Glycine, 2 mM MTS, 1 mM H2O2): 0.0908
dA per min at 279 nm ([3]; pH 1, 25 mM buffer): 0.0348
dA per min at 279 nm ([3]; pH 2, 25 mM buffer): -0.1376
dA per min at 279 nm ([3]; pH 3, 25 mM buffer): 0.1042
dA per min at 279 nm ([3]; pH 3.5, 25 mM buffer): 0.218
dA per min at 279 nm ([3]; pH 4, 25 mM buffer): 0.0893
dA per min at 279 nm ([3]; pH 4.5, 25 mM buffer): 0.0017
Absorbance Units at 308 nm ([3]; time of reaction 0 min): 0.21 Absorbance Units
Absorbance Units at 308 nm ([3]; time of reaction 1 min): 0.293 Absorbance Units
Absorbance Units at 308 nm ([3]; time of reaction 2 min): 0.35 Absorbance Units
Absorbance Units at 308 nm ([3]; time of reaction 3 min): 0.381 Absorbance Units
Absorbance Units at 308 nm ([3]; time of reaction 4 min): 0.401 Absorbance Units

CC1(C)CC(=O)CC(=O)C1 [dimedone, 5,5-dimethyl-1,3-cyclohexane dione]
dA per min at 307 nm ([4]; 25 °C, pH 2): 0.1066
dA per min at 307 nm ([4]; 35 °C, pH 2): 0.1204
dA per min at 307 nm ([4]; 45 °C, pH 2): 0.1962
dA per min at 307 nm ([4]; 55 °C, pH 2): 0.1792
dA per min at 307 nm ([4]; 65 °C, pH 2): 0.0155
dA per min at 307 nm ([4]; 75 °C, pH 2): 0.0181
optimal temperature of oxidative chlorination ([4]; pH 2): about 45 °C
Absorbance Units at 307 nm ([4]; time of reaction 0 min): 0.175 Absorbance Units
Absorbance Units at 307 nm ([4]; time of reaction 1 min): 0.275 Absorbance Units
Absorbance Units at 307 nm ([4]; time of reaction 2 min): 0.510 Absorbance Units
Absorbance Units at 307 nm ([4]; time of reaction 3 min): 0.800 Absorbance Units
Absorbance Units at 307 nm ([4]; time of reaction 7 min): 0.868 Absorbance Units
